Active and inactive are the calls of the source. The rule behind the calls is not given here.
Tested on: CCRIS mutagenicity, Ames/micronucleus/aberration tests
Assay: CCRIS mutagenicity studies
[1] = Test System: AMES SALMONELLA TYPHIMURIUM, Strain/Indicator: TA98, Metabolic Activation: RAT, LIVER, S-9, AROCLOR 1254, Method: STANDARD PLATE
[2] = Test System: AMES SALMONELLA TYPHIMURIUM, Strain/Indicator: TA100, Metabolic Activation: RAT, LIVER, S-9, AROCLOR 1254, Method: STANDARD PLATE
[3] = Test System: AMES SALMONELLA TYPHIMURIUM, Strain/Indicator: TA100, Metabolic Activation: NONE, Method: STANDARD PLATE
[4] = Test System: AMES SALMONELLA TYPHIMURIUM, Strain/Indicator: TA98, Metabolic Activation: NONE, Method: STANDARD PLATE

Measured: mutagenic call

CN(C)C(=S)SSC(=S)N(C)C
active: [1] active; positive | [2] active; positive | Test System: AMES SALMONELLA TYPHIMURIUM, Strain/Indicator: TA100, Metabolic Activation: S-9, Method: STANDARD PLATE active; positive | Test System: AMES SALMONELLA TYPHIMURIUM, Strain/Indicator: TA1535, Metabolic Activation: NONE, Method: STANDARD PLATE active; positive | Test System: AMES SALMONELLA TYPHIMURIUM, Strain/Indicator: TA1535, Metabolic Activation: RAT, LIVER, S-9, AROCLOR 1254, Method: STANDARD PLATE active; positive | Test System: AMES SALMONELLA TYPHIMURIUM, Strain/Indicator: TA1538, Metabolic Activation: NONE, Method: STANDARD PLATE active; positive | Test System: AMES SALMONELLA TYPHIMURIUM, Strain/Indicator: TA1538, Metabolic Activation: RAT, LIVER, S-9, AROCLOR 1254, Method: STANDARD PLATE active; positive | Test System: CHINESE HAMSTER V-79, Strain/Indicator: V-79 (HGPRT)/6-THIOGUANINE, Metabolic Activation: NONE, Method: RESPREADING active; positive
inactive: End Point: IN VIVO MICRONUCLEUS, Test System: BONE MARROW POLYCHROMATIC ERYTHROCYTES, Species: MOUSE, Strain/Sex: SWISS/MALE, FEMALE, Route: IP 2X IN AQUEOUS SUSPENSION WITHIN 24 HR inactive; negative | Test System: AMES SALMONELLA TYPHIMURIUM, Strain/Indicator: TA98, Metabolic Activation: S-9, Method: STANDARD PLATE inactive; negative | Test System: AMES SALMONELLA TYPHIMURIUM, Strain/Indicator: TA102, Metabolic Activation: NONE, Method: STANDARD PLATE inactive; negative | Test System: AMES SALMONELLA TYPHIMURIUM, Strain/Indicator: TA102, Metabolic Activation: RAT, LIVER, S-9, AROCLOR 1254, Method: STANDARD PLATE inactive; negative | Test System: AMES SALMONELLA TYPHIMURIUM, Strain/Indicator: TA104, Metabolic Activation: NONE, Method: STANDARD PLATE inactive; negative | Test System: AMES SALMONELLA TYPHIMURIUM, Strain/Indicator: TA104, Metabolic Activation: RAT, LIVER, S-9, AROCLOR 1254, Method: STANDARD PLATE inactive; negative

O=C1NC(=O)C(Cl)(Cl)C1=C(Cl)Cl
active: [3] active; positive

O=C(Nc1ccccc1Br)c1csc([N+](=O)[O-])c1
active: [4] active; positive | [3] active; positive

O=[N+]([O-])c1cc2[nH]c3ccc4ccc(O)cc4c3c2c2ccccc12
active: [4] active; positive | Test System: AMES SALMONELLA TYPHIMURIUM, Strain/Indicator: TA98, Metabolic Activation: RAT, LIVER, S-9, 3-METHYLCHOLANTHRENE, Method: STANDARD PLATE active; positive | [3] active; positive | Test System: AMES SALMONELLA TYPHIMURIUM, Strain/Indicator: TA100, Metabolic Activation: RAT, LIVER, S-9, 3-METHYLCHOLANTHRENE, Method: STANDARD PLATE active; positive

C=CC(=O)OCC1CO1 (stereo not drawn)
active: Test System: AMES SALMONELLA TYPHIMURIUM, Strain/Indicator: TA100, Metabolic Activation: HAMSTER, LIVER, S-9, AROCLOR 1254 (10%), Method: PREINCUBATION active; positive | Test System: AMES SALMONELLA TYPHIMURIUM, Strain/Indicator: TA100, Metabolic Activation: NONE, Method: PREINCUBATION active; positive | Test System: AMES SALMONELLA TYPHIMURIUM, Strain/Indicator: TA100, Metabolic Activation: RAT, LIVER, S-9, AROCLOR 1254 (10%), Method: PREINCUBATION active; positive | Test System: AMES SALMONELLA TYPHIMURIUM, Strain/Indicator: TA1535, Metabolic Activation: HAMSTER, LIVER, S-9, AROCLOR 1254 (10%), Method: PREINCUBATION active; positive | Test System: AMES SALMONELLA TYPHIMURIUM, Strain/Indicator: TA1535, Metabolic Activation: NONE, Method: PREINCUBATION active; positive | Test System: AMES SALMONELLA TYPHIMURIUM, Strain/Indicator: TA1535, Metabolic Activation: RAT, LIVER, S-9, AROCLOR 1254 (10%), Method: PREINCUBATION active; positive

Cc1c2ccccc2c(C)c2c1c1c(c3ccccc32)N1
active: Test System: AMES SALMONELLA TYPHIMURIUM, Strain/Indicator: TA98, Metabolic Activation: NONE, Method: PREINCUBATION active; positive

CC(=O)c1c(O)cc(O)c2c1C(=O)c1cc(O)cc(O)c1C2=O
inactive: [4] inactive; negative | [1] inactive; negative | [3] inactive; negative | [2] inactive; negative | Test System: AMES SALMONELLA TYPHIMURIUM, Strain/Indicator: TA1537, Metabolic Activation: RAT, LIVER, S-9, AROCLOR 1254, Method: STANDARD PLATE inactive; negative

Source: PubChem BioAssay AID1259407 (Chemical Carcinogenesis Research Information System (CCRIS), 2018)
